Where a chain is given by its changes, count along the chain named. pEC50: −log10 of the molar value.

One assay deals with 5-HT1F–Gi1 complex (Homo sapiens, UniProt P30939). Put plainly: cryo-EM structure, […] Å. Particulars: orthosteric and extended binding pocket; 10 μM lasmiditan, pH 7.4.
Assay [1] deals with T1, 5-HT1F (Homo sapiens, UniProt P30939).
T1 sequence (P30939 1-366): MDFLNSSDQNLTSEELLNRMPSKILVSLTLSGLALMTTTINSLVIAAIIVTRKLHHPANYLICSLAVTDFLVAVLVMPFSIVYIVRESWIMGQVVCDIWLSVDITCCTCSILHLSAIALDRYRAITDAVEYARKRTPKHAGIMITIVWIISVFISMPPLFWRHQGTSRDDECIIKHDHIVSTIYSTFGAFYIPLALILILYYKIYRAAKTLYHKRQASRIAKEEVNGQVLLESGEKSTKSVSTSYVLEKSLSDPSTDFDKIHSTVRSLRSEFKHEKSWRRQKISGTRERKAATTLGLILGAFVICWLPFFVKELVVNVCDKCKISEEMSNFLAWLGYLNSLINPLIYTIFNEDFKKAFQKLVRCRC
In words: NanoBiT Gi recruitment assay. It is filed as cell-based.

The target of assay [2] is T2, 5-HT1F (Homo sapiens, UniProt P30939, I104A).
T2 sequence (P30939 1-366 I104A): T1 sequence (P30939 1-366) with I104A
Put plainly: NanoBiT Gi recruitment assay. It is filed as cell-based.

For assay [3], the target named is T3, 5-HT1F (Homo sapiens, UniProt P30939, F310A).
T3 sequence (P30939 1-366 F310A): T1 sequence (P30939 1-366) with F310A
Put plainly: NanoBiT Gi recruitment assay. The class given is cell-based.

Take `CN1CCC(C(=O)c2cccc(NC(=O)c3c(F)cc(F)cc3F)n2)CC1` [lasmiditan]: the “cryo-EM structure, 3.4 Å” value at 5-HT1F–Gi1 complex was “the lasmiditan-bound 5-HT1F–Gi complex”. Also, the negative-log EC50 (pEC50) at 5-HT1F [1] was 7.52; at 5-HT1F [2], 5.66; at 5-HT1F [3], < 4.00.
